From patent US20260306644A1, “ANTIBODY RECRUITING MOLECULES FOR THE TREATMENT OF CORONAVIRUS DISEASE-19” (priority 2023, published 2026)
Where “and” joins values, the source holds several entries; their conditions need not be identical. Equal entries are not always repeated. Where two headings read alike, the source gives them in different places. Positions of bridges follow the written chain, without caps; N, C: chain ends. No end group written: not given here.

How the values were obtained:
[1] = molecular target: T1, SARS-CoV-2 Spike A (wild-type) (Severe acute respiratory syndrome coronavirus 2, UniProt P0DTC2); assay: MSD ACE2 competition assay (inhibition of Spike binding with ACE2, ECL), A (wild-type)
T1 construct: purchased Meso Scale Diagnostics, LLC V-PLEX SARS-CoV-2 Panel 13 (ACE2) Kit / Panel 23 (ACE2) Kit

SARS-CoV-2 Spike protein = SARS-CoV-2 Spike protein (Severe acute respiratory syndrome coronavirus 2, UniProt P0DTC2); assay: Ternary binding of SARS-CoV-2 Spike protein (293T cells expressing Spike-GFP, IgG-AF647, flow cytometry); assay type: cell-based; conditions: 293T cells expressing Spike-GFP; IgG-AF647 10 μg/ml; repeat values/batches listed separately; read-out: SARS-CoV-2 Ternary binding EC50
[2] = read-out: IC50 Wild Type, Wild Type Spike
[3] = IC50 Wild Type, Wild Type Spike

Compound	IC50 [1, 2]	EC50 (SARS-CoV-2 Spike protein)	IC50 [1, 3]
CC[C@H](C)[C@H](NC(=O)[C@H](CC(C)C)NC(=O)[C@H](CC(=O)O)NC(=O)[C@H](CO)NC(=O)[C@@H](NC(=O)[C@H](CCCNC(=N)N)NC(=O)[C@H](CCSC)NC(=O)[C@H](CO)NC(=O)[C@H](C)NC(=O)[C@H](CCC(=O)O)NC(=O)[C@H](C)NC(=O)[C@H](Cc1c[nH]cn1)NC(=O)CNC(=O)[C@H](CC(C)C)NC(=O)[C@H](CCC(=O)O)NC(=O)[C@H](CC(=O)O)NC(=O)[C@H](CC(C)C)NC(=O)[C@H](CC(C)C)NC(=O)[C@H](CCCNC(=N)N)NC(=O)[C@H](CCSC)NC(=O)[C@@H](NC(=O)[C@H](CCC(=O)O)NC(=O)[C@H](Cc1ccc(O)cc1)NC(=O)[C@@H](NC(=O)[C@H](CCCCN)NC(=O)[C@H](CCC(N)=O)NC(=O)[C@H](CC(C)C)NC(=O)[C@@H](NC(=O)[C@H](Cc1c[nH]c2ccccc12)NC(=O)[C@H](CCC(=O)O)NC(=O)[C@H](CCCCN)NC(=O)[C@H](CC(=O)O)NC(C)=O)[C@@H](C)CC)[C@@H](C)CC)[C@@H](C)CC)C(C)C)C(=O)N[C@@H](Cc1ccc(O)cc1)C(=O)N[C@@H](CCC(=O)O)C(=O)N[C@@H](Cc1ccccc1)C(=O)N[C@@H](CCSC)C(=O)N[C@@H](CCCCN)C(=O)N[C@@H](CCCCN)C(=O)NCC(=O)NCCOCCOCCOCCOCCOCCOCCOCCOCCC(=O)NCCOCCOCCOCCOCCOCCOCCOCCOCCC(=O)NCCOCCOCCOCCOCCOCCOCCOCCOCCC(=O)N[C@@H](CC(=O)O)C(=O)N[C@H]1CSSC[C@@H](C(=O)N[C@H](C(=O)O)[C@@H](C)O)NC(=O)[C@H](Cc2c[nH]c3ccccc23)NC(=O)[C@H](C(C)C)NC(=O)[C@H](CC(C)C)NC(=O)[C@H](CCC(=O)O)NC(=O)CNC(=O)[C@H](CC(C)C)NC(=O)[C@H](Cc2c[nH]cn2)NC(=O)[C@H](Cc2c[nH]c3ccccc23)NC(=O)[C@H](C)NC1=O [Compound 168]	0.00326 µM	0.00019 µM	–
CC[C@H](C)[C@H](NC(=O)[C@H](CC(C)C)NC(=O)[C@H](CC(=O)O)NC(=O)[C@H](CO)NC(=O)[C@@H](NC(=O)[C@H](CCCNC(=N)N)NC(=O)[C@H](CCSC)NC(=O)[C@H](CO)NC(=O)[C@H](C)NC(=O)[C@H](CCC(=O)O)NC(=O)[C@H](C)NC(=O)[C@H](Cc1c[nH]cn1)NC(=O)CNC(=O)[C@H](CC(C)C)NC(=O)[C@H](CCC(=O)O)NC(=O)[C@H](CC(=O)O)NC(=O)[C@H](CC(C)C)NC(=O)[C@H](CC(C)C)NC(=O)[C@H](CCCNC(=N)N)NC(=O)[C@H](CCSC)NC(=O)[C@@H](NC(=O)[C@H](CCC(=O)O)NC(=O)[C@H](Cc1ccc(O)cc1)NC(=O)[C@@H](NC(=O)[C@H](CCCCN)NC(=O)[C@H](CCC(N)=O)NC(=O)[C@H](CC(C)C)NC(=O)[C@@H](NC(=O)[C@H](Cc1c[nH]c2ccccc12)NC(=O)[C@H](CCC(=O)O)NC(=O)[C@H](CCCCN)NC(=O)[C@H](CC(=O)O)NC(C)=O)[C@@H](C)CC)[C@@H](C)CC)[C@@H](C)CC)C(C)C)C(=O)N[C@@H](Cc1ccc(O)cc1)C(=O)N[C@@H](CCC(=O)O)C(=O)N[C@@H](Cc1ccccc1)C(=O)N[C@@H](CCSC)C(=O)N[C@@H](CCCCN)C(=O)N[C@@H](CCCCN)C(=O)NCC(=O)NCC(=O)NCC(=O)NCC(=O)N[C@@H](CC(=O)O)C(=O)N[C@H]1CSSC[C@@H](C(=O)N[C@H](C(=O)O)[C@@H](C)O)NC(=O)[C@H](Cc2c[nH]c3ccccc23)NC(=O)[C@H](C(C)C)NC(=O)[C@H](CC(C)C)NC(=O)[C@H](CCC(=O)O)NC(=O)CNC(=O)[C@H](CC(C)C)NC(=O)[C@H](Cc2c[nH]cn2)NC(=O)[C@H](Cc2c[nH]c3ccccc23)NC(=O)[C@H](C)NC1=O [Compound 107]	–	0.0031 µM and 0.0045 µM	0.0362 µM
Ac-ILQKIYEICRLLDELGHAEASMRCSDLIYEFMKKGDCAWHLGELVWCT-NH2 (disulfide 9-24, 37-47) [Compound 141]	0.0251 µM and 0.0438 µM and 0.0301 µM	0.0034 µM and 0.0021 µM	–
Ac-DKEWILQKIYEIMRLLDELGHAEASMRVSDLIYEFMKKGGGGGGGGGDCAWHLGELVWCT (disulfide 49-59) [Compound 166]	0.0166 µM	0.00023 µM	–
CC[C@H](C)[C@H](N)C(=O)N[C@@H](CC(C)C)C(=O)N[C@@H](CCC(N)=O)C(=O)N[C@@H](CCCCN)C(=O)N[C@H](C(=O)N[C@@H](Cc1ccc(O)cc1)C(=O)N[C@@H](CCC(=O)O)C(=O)N[C@H](C(=O)N[C@@H](CCSC)C(=O)N[C@@H](CCCNC(=N)N)C(=O)N[C@@H](CC(C)C)C(=O)N[C@@H](CC(C)C)C(=O)N[C@@H](CC(=O)O)C(=O)N[C@@H](CCC(=O)O)C(=O)N[C@@H](CC(C)C)C(=O)NCC(=O)N[C@@H](Cc1c[nH]cn1)C(=O)N[C@@H](C)C(=O)N[C@@H](CCC(=O)O)C(=O)N[C@@H](C)C(=O)N[C@@H](CO)C(=O)N[C@@H](CCSC)C(=O)N[C@@H](CCCNC(=N)N)C(=O)N[C@H](C(=O)N[C@@H](CO)C(=O)N[C@@H](CC(=O)O)C(=O)N[C@@H](CC(C)C)C(=O)N[C@H](C(=O)N[C@@H](Cc1ccc(O)cc1)C(=O)N[C@@H](CCC(=O)O)C(=O)N[C@@H](Cc1ccccc1)C(=O)N[C@@H](CCSC)C(=O)N[C@@H](CCCCN)C(=O)N[C@@H](CCCCN)C(=O)NCC(=O)N[C@@H](CC(=O)O)C(=O)N[C@H]1CSSC[C@@H](C(=O)N[C@H](C(=O)O)[C@@H](C)O)NC(=O)[C@H](Cc2c[nH]c3ccccc23)NC(=O)[C@H](C(C)C)NC(=O)[C@H](CC(C)C)NC(=O)[C@H](CCC(=O)O)NC(=O)CNC(=O)[C@H](CC(C)C)NC(=O)[C@H](Cc2c[nH]cn2)NC(=O)[C@H](Cc2c[nH]c3ccccc23)NC(=O)[C@H](C)NC1=O)[C@@H](C)CC)C(C)C)[C@@H](C)CC)[C@@H](C)CC [Compound 117]	–	0.0049 µM and 0.0044 µM	0.0548 µM and 0.0611 µM
CC[C@H](C)[C@H](NC(=O)[C@H](CC(C)C)NC(=O)[C@H](CC(=O)O)NC(=O)[C@H](CO)NC(=O)[C@@H](NC(=O)[C@H](CCCNC(=N)N)NC(=O)[C@H](CCSC)NC(=O)[C@H](CO)NC(=O)[C@H](C)NC(=O)[C@H](CCC(=O)O)NC(=O)[C@H](C)NC(=O)[C@H](Cc1c[nH]cn1)NC(=O)CNC(=O)[C@H](CC(C)C)NC(=O)[C@H](CCC(=O)O)NC(=O)[C@H](CC(=O)O)NC(=O)[C@H](CC(C)C)NC(=O)[C@H](CC(C)C)NC(=O)[C@H](CCCNC(=N)N)NC(=O)[C@H](CCSC)NC(=O)[C@@H](NC(=O)[C@H](CCC(=O)O)NC(=O)[C@H](Cc1ccc(O)cc1)NC(=O)[C@@H](NC(=O)[C@H](CCCCN)NC(=O)[C@H](CCC(N)=O)NC(=O)[C@H](CC(C)C)NC(=O)[C@@H](NC(=O)[C@H](Cc1c[nH]c2ccccc12)NC(=O)[C@H](CCC(=O)O)NC(=O)[C@H](CCCCN)NC(=O)[C@H](CC(=O)O)NC(C)=O)[C@@H](C)CC)[C@@H](C)CC)[C@@H](C)CC)C(C)C)C(=O)N[C@@H](Cc1ccc(O)cc1)C(=O)N[C@@H](CCC(=O)O)C(=O)N[C@@H](Cc1ccccc1)C(=O)N[C@@H](CCSC)C(=O)N[C@@H](CCCCN)C(=O)N[C@@H](CCCCN)C(=O)NCC(=O)N[C@@H](CC(=O)O)C(=O)N[C@H]1CSSC[C@@H](C(=O)N[C@H](C(=O)O)[C@@H](C)O)NC(=O)[C@H](Cc2c[nH]c3ccccc23)NC(=O)[C@H](C(C)C)NC(=O)[C@H](CC(C)C)NC(=O)[C@H](CCC(=O)O)NC(=O)CNC(=O)[C@H](CC(C)C)NC(=O)[C@H](Cc2c[nH]cn2)NC(=O)[C@H](Cc2c[nH]c3ccccc23)NC(=O)[C@H](C)NC1=O [Compound 112]	–	0.00045 µM and 0.00055 µM	0.0407 µM
Ac-ILQKIYEIMRLCDELGHAEACMRVSDLIYEFMKKGDCAWHLGELVWCT-NH2 (disulfide 12-21, 37-47) [Compound 139]	0.315 µM and 0.514 µM and 0.259 µM	0.017 µM and 0.013 µM	–
CC[C@H](C)[C@H](NC(=O)[C@H](CC(C)C)NC(=O)[C@H](CC(=O)O)NC(=O)[C@H](CO)NC(=O)[C@@H](NC(=O)[C@H](CCCNC(=N)N)NC(=O)[C@H](CCSC)NC(=O)[C@H](CO)NC(=O)[C@H](C)NC(=O)[C@H](CCC(=O)O)NC(=O)[C@H](C)NC(=O)[C@H](Cc1c[nH]cn1)NC(=O)CNC(=O)[C@H](CC(C)C)NC(=O)[C@H](CCC(=O)O)NC(=O)[C@H](CC(=O)O)NC(=O)[C@H](CC(C)C)NC(=O)[C@H](CC(C)C)NC(=O)[C@H](CCCNC(=N)N)NC(=O)[C@H](CCSC)NC(=O)[C@@H](NC(=O)[C@H](CCC(=O)O)NC(=O)[C@H](Cc1ccc(O)cc1)NC(=O)[C@@H](NC(=O)[C@H](CCCCN)NC(=O)[C@H](CCC(N)=O)NC(=O)[C@H](CC(C)C)NC(=O)[C@@H](NC(=O)[C@H](Cc1c[nH]c2ccccc12)NC(=O)[C@H](CCC(=O)O)NC(=O)[C@H](CCCCN)NC(=O)[C@H](CC(=O)O)NC(C)=O)[C@@H](C)CC)[C@@H](C)CC)[C@@H](C)CC)C(C)C)C(=O)N[C@@H](Cc1ccc(O)cc1)C(=O)N[C@@H](CCC(=O)O)C(=O)N[C@@H](Cc1ccccc1)C(=O)N[C@@H](CCSC)C(=O)N[C@@H](CCCCN)C(=O)N[C@@H](CCCCN)C(=O)NCC(=O)N[C@@H](CC(=O)O)C(=O)N[C@H]1CSSC[C@@H](C(=O)N[C@H](C(N)=O)[C@@H](C)O)NC(=O)[C@H](Cc2c[nH]c3ccccc23)NC(=O)[C@H](C(C)C)NC(=O)[C@H](CC(C)C)NC(=O)[C@H](CCC(=O)O)NC(=O)CNC(=O)[C@H](CC(C)C)NC(=O)[C@H](Cc2c[nH]cn2)NC(=O)[C@H](Cc2c[nH]c3ccccc23)NC(=O)[C@H](C)NC1=O [Compound 129]	–	0.0023 µM and 0.003 µM	0.025 µM
